Experimental data taken from patent US8481005B2, “Methods to prevent cytotoxicity using N-acetyl-cysteine” (priority 2006, dated 2013).

Assays:
Format in all cases: cell-based
[1] = test system: active caspase 3; assay: Active caspase 3 staining in PBMCs treated with HEMA or CDDP; settings: HEMA 0.0164M, CDDP
[2] = test system: PBMCs; assay: PBMCs treated with HEMA or CDDP, FITC-Annexin V and PI; settings: about 18 hours, highest concentration of CDDP, HEMA 0.0164M-0.00164M
Text: The cells were then stained with FITC-Annexin V and PI according to the manufacturer's protocol.

[3] = test system: dental pulp stromal cells; assay: Cell death of rat dental pulp stromal cells with ascorbic acid; settings: overnight incubation; FITC Annexin V and PI
Description: Rat dental pulp stromal cells were next treated with HEMA in the presence and absence of another antioxidant, ascorbic acid. After an overnight incubation following procedures similar to those described above, levels of cell death were determined using FITC Annexin V and PI. […] Role of Cell Differentiation Studies

[4] = test system: Caspase 3; assay: Full length caspase 3 in keratinocytes; settings: about 8 hours, NAC 20 mM
Text: Roles of NFkB and GAPDH in HEMA-Mediated Cell Death

[5] = test system: human dental pulp stromal cells; assay: VEGF by ELISA, human dental pulp stromal cells, NAC versus vitamin E (Table 5); settings: 4 hours
Description: (§1) Following the 4 hour incubation, cells were analyzed for apoptosis using FTIC-Annexin V and PI.
Dental pulp stromal cells were then treated as described in the preceding paragraph with supernatants removed and assayed for VEGF levels by ELISA following the 4 hour incubation.

[6] = test system: human dental pulp stromal cells; assay: Apoptosis of human dental pulp stromal cells, NAC versus vitamin E, 4 hours; settings: HEMA (0.0082M), vitamin E (5 mM)
Description: as §1

N.N.[Cl][Pt][Cl] [CDDP, Cis-diaminedichloroplatinum (II)]
active caspase 3 staining [1]: 22%
cells remained both PI and Annexin V negative [2]: 80%

O=C1O[C@H]([C@@H](O)CO)C(O)=C1O [ascorbic acid]
reversal of apoptosis induced by HEMA [3]: did not reverse apoptosis induced by HEMA

CC[C@@]1(O)C(=O)OCc2c1cc1n(c2=O)Cc2cc3ccccc3nc2-1 [camptothecin]
levels of full length caspase 3 (processing of caspase 3) [4]: moderate effect in processing of caspase 3

Vitamin E [Vit E]
VEGF levels by ELISA, Human dental pulp stromal cells ([5]; no HEMA, NAC (20 mM) and/or vitamin E (5 mM)): 1966.2
prevention of HEMA mediated decrease in VEGF secretion ([5]; vitamin E (5 mM)): failed to prevent the HEMA mediated decrease in VEGF secretion
inhibition of HEMA mediated cell death [6]: failed to inhibit HEMA mediated cell death
